Several values for one entry are separate records, joined by “and”; a condition that tells them apart may be missing. Identical values can stand only once. Activity calls are given as the source filed them. The calls are words filed in the database; no cut-off is given here.
Experiments:
[1] = tested on: Mus musculus; assay: Anticonvulsant activity in ip dosed Kunming mouse assessed as reduction in ScPTZ-induced seizure administered 0.5 hrs before ScPTZ stimulation; format: functional
[2] = species on record: Homo sapiens; assay: Inhibition of human LDH5 assessed as remaining activity at 0.5 mM using sodium pyruvate as substrate by UV-VIS spectrophotometry method relative to control
[3] = species on record: Homo sapiens; assay: Inhibition of human LDH1 assessed as remaining activity at 0.5 mM using sodium pyruvate as substrate by UV-VIS spectrophotometry method relative to control
[4] = Neurotoxicity against ip dosed Kunming mouse assessed as time remained in rod measured at 0.5 hrs by rotarod test; format: toxicity, organism-based; conditions: in vivo
[5] = tested on: Mus musculus; assay: Anticonvulsant activity in ip dosed Kunming mouse assessed as MES-induced hind limb extension administered 0.5 hrs before MES stimulation; format: functional
[6] = species on record: Homo sapiens; assay: Inhibition of human LDH1 at 0.5 mM using sodium pyruvate as substrate by UV-VIS spectrophotometry method relative to control
[7] = tested on: Mus musculus; assay: Anticonvulsant activity in Kunming mouse assessed as MES-induced hind limb extension at 100 mg/kg, ip administered 0. 5 hrs before MES stimulation relative to control; format: functional
[8] = (§1) Protective index, ratio of TD50 for neurotoxicity against ip dosed Kunming mouse assessed as time remained in rod measured at 0.5 hrs by rotarod test to ED50 for anticonvulsant activity in ip dosed Kunming mouse assessed as reduction in Sc3-MP-induced seizure administered 0.5 hrs before Sc3-MP stimulation; format: toxicity, organism-based; conditions: in vivo, read-out: PI
[9] = Neurotoxicity against Kunming mouse assessed as time remained in rod at 100 mg/kg, ip administered 0.5 to 2 hrs by rotarod test; format: toxicity, organism-based; conditions: in vivo
[10] = tested on: Mus musculus; assay: Anticonvulsant activity in Kunming mouse assessed as reduction in ScPTZ-induced clonic seizure at 300 mg/kg, ip administered 0.5 hrs before ScPTZ stimulation relative to control; format: functional; set-up: scale not given: the % may be the effect or the level left
[11] = tested on: Mus musculus; assay: Anticonvulsant activity in Kunming mouse assessed as reduction in ScPTZ-induced tonic seizure rate at 300 mg/kg, ip administered 0.5 hrs before ScPTZ stimulation relative to control; format: functional; set-up: scale not given: the % may be the effect or the level left
[12] = tested on: Mus musculus; assay: Anticonvulsant activity in Kunming mouse assessed as reduction in ScPTZ-induced tonic seizure rate at 100 mg/kg, ip administered 0.5 hrs before ScPTZ stimulation relative to control; format: functional; set-up: scale not given: the % may be the effect or the level left
[13] = tested on: Mus musculus; assay: Anticonvulsant activity in Kunming mouse assessed as MES-induced hind limb extension at 100 mg/kg, ip administered 4 hrs before MES stimulation; format: functional, organism-based
[14] = tested on: Mus musculus; assay: Anticonvulsant activity in Kunming mouse assessed as reduction in Sc3-MP-induced clonic seizure rate at 300 mg/kg, ip administered 0.5 hrs before Sc3-MP stimulation relative to control; format: functional; set-up: scale not given: the % may be the effect or the level left
[15] = tested on: Mus musculus; assay: Anticonvulsant activity in Kunming mouse assessed as MES-induced hind limb extension at 100 mg/kg, ip administered 3 hrs before MES stimulation; format: functional, organism-based
[16] = species on record: Homo sapiens; assay: Inhibition of human LDH5 at 0.5 mM using sodium pyruvate as substrate measured for 60 sec for every 5 mins by LC/MS-MS analysis
[17] = tested on: Mus musculus; assay: Anticonvulsant activity in Kunming mouse assessed as MES-induced hind limb extension at 100 mg/kg, ip administered 0. 5 to 4 hrs before MES stimulation relative to control; format: functional
[18] = tested on: Mus musculus; assay: Anticonvulsant activity in Kunming mouse assessed as reduction in ScPTZ-induced seizure at 300 mg/kg, ip administered 0.25 to 2 hrs before ScPTZ stimulation relative to control; format: functional; set-up: scale not given: the % may be the effect or the level left
[19] = tested on: Mus musculus; assay: Anticonvulsant activity in Kunming mouse assessed as reduction in Sc3-MP-induced tonic seizure rate at 300 mg/kg, ip administered 0.5 hrs before Sc3-MP stimulation relative to control; format: functional; set-up: scale not given: the % may be the effect or the level left
[20] = as §1, with “ScPTZ-induced” for “Sc3-MP-induced”, “ScPTZ” for “Sc3-MP”; format: toxicity, organism-based; conditions: in vivo, read-out: PI
[21] = tested on: Mus musculus; assay: Anticonvulsant activity in Kunming mouse assessed as MES-induced hind limb extension at 50 mg/kg, ip administered 0.5 to 4 hrs before MES stimulation relative to control; format: functional
[22] = as §1, with “formalin-induced paw licking” for “Sc3-MP-induced seizure”, “formalin” for “Sc3-MP”; format: toxicity, organism-based; conditions: in vivo, read-out: PI
[23] = tested on: Mus musculus; assay: Anticonvulsant activity in Kunming mouse assessed as reduction in ScPTZ-induced seizure at 100 mg/kg, ip administered 0.25 to 2 hrs before ScPTZ stimulation relative to control; format: functional
[24] = Protective index, ratio of TD50 for neurotoxicity against ip dosed Kunming mouse assessed as time remained in rod measured at 0.5 hrs by rotarod test to ED50 for anticonvulsant activity in ip dosed Kunming mouse assessed as MES-induced hind limb extension administered 0.5 hrs; format: toxicity, organism-based; conditions: in vivo, read-out: PI
[25] = species on record: Homo sapiens; assay: Inhibition of human LDH1 at 0.5 mM using sodium pyruvate as substrate measured for 60 sec for every 5 mins by LC/MS-MS analysis
[26] = species on record: Homo sapiens; assay: Inhibition of human LDH5 at 0.5 mM using sodium pyruvate as substrate by UV-VIS spectrophotometry method relative to control
[27] = tested on: Mus musculus; assay: Anticonvulsant activity in Kunming mouse assessed as reduction in ScPTZ-induced seizure at 100 mg/kg, ip administered 0.5 hrs before ScPTZ stimulation relative to control; format: functional; set-up: scale not given: the % may be the effect or the level left
[28] = tested on: Mus musculus; assay: Anticonvulsant activity in Kunming mouse assessed as MES-induced hind limb extension at 50 mg/kg, ip administered 0.5 and 2 hrs before MES stimulation relative to control; format: functional
[29] = tested on: Mus musculus; assay: Anticonvulsant activity in Kunming mouse assessed as MES-induced hind limb extension at 100 mg/kg, ip administered 0. 5 to 2 hrs before MES stimulation; format: functional, organism-based
[30] = tested on: Mus musculus; assay: Anticonvulsant activity in Kunming mouse assessed as reduction in ScPTZ-induced clonic seizure at 100 mg/kg, ip administered 0.5 hrs before ScPTZ stimulation relative to control; format: functional; set-up: scale not given: the % may be the effect or the level left
[31] = tested on: Mus musculus; assay: Anticonvulsant activity in Kunming mouse assessed as reduction in Sc3-MP-induced seizure ip dosed measured at 0.5 hrs before Sc3-MP stimulation; format: functional
[32] = tested on: Mus musculus; assay: Anticonvulsant activity in Kunming mouse assessed as reduction in ScPTZ-induced seizure at 100 mg/kg, ip administered 1 hr relative to control; format: functional; set-up: scale not given: the % may be the effect or the level left
[33] = tested on: Mus musculus; assay: […] activity in ip dosed Kunming mouse assessed as reduction in formalin-induced paw licking administered 0.5 hrs before formalin stimulation; format: functional
[34] = tested on: Mus musculus; assay: Anticonvulsant activity in Kunming mouse assessed as reduction in ScPTZ-induced mortality rate at 300 mg/kg, ip administered 0.5 hrs before ScPTZ stimulation relative to control; format: functional; set-up: scale not given: the % may be the effect or the level left

Compound | ED50 [1] | TD50 at 0.5 h [4] | ED50 [5] | inhibition [6] | Activity [7] [%] | selectivity ratio at 0.5 h [8] | Activity [9] | Activity [10] [%] | Activity [11] [%] | Activity [12] [%] | Activity [13] | Activity [14] [%] | inhibition [16] [%] | Activity [17] | Activity [18] [%] | Activity [19] [%] | selectivity ratio at 0.5 h [20] | Activity [21] [%] | selectivity ratio at 0.5 h [22] | Activity [23] | other results
NC(=O)N1c2ccccc2C=Cc2ccccc21 [CARBAMAZEPINE] | > 100 mg/kg and > 423 µmol/kg | 303 µmol/kg | 18.1 mg/kg and 76.5 µmol/kg |  |  |  |  |  |  |  |  |  |  |  |  |  |  |  |  |  | Activity [2]: 100%; Activity [3]: 100%
COc1cc(OC)c(OC)cc1/C=C/COC(=O)/C=C/c1ccc(F)cc1 | 167 mg/kg and 449 µmol/kg | > 2690 µmol/kg and > 1000 mg/kg | 92.9 µmol/kg and 34.6 mg/kg | < 5% | 100 | 5 | Non-Toxic | 100 | 0 | 100 | Active | 100 | 5 | 25 - 100% | 50 | 75 | > 5.9 | 50 | 23 | inactive | Activity [15]: Active; selectivity ratio at 0.5 h [24]: > 28.9; inhibition [25]: 5%; inhibition [26]: < 9%; Activity [27]: 100%; Activity [28]: 75%; Activity [29]: Active; Activity [30]: 100%; ED50 [31]: > 300 mg/kg and > 806 µmol/kg; Activity [32]: 75%; ED50 [33]: 43.4 mg/kg and 116 µmol/kg
COc1ccccc1/C=C/C(=O)OC/C=C/c1cc(OC)c(OC)cc1OC | 240 mg/kg and 625 µmol/kg | > 1000 mg/kg and 2600 µmol/kg | 39 mg/kg and 101 µmol/kg | inactive | 100 | 3.3 | Non-Toxic | 100 | 50 | 100 | Active | 100 | 2 | 25 - 100% | 50 | 100 | > 4.2 | 50 | > 8.9 | inactive | Activity [34]: 25%; selectivity ratio at 0.5 h [24]: > 25.6; inhibition [25]: 2%; inhibition [26]: inactive; Activity [28]: 75%; Activity [29]: Active; Activity [30]: 100%; ED50 [31]: > 300 mg/kg and 780 µmol/kg; ED50 [33]: 113 mg/kg and 294 µmol/kg

— ChEMBL document CHEMBL4311969, “Polygala tenuifolia-Acori tatarinowii herbal pair as an inspiration for substituted cinnamic α-asaronol esters: Design, synthesis, anticonvulsant activity, and inhibition of lactate dehydrogenase study” (Eur J Med Chem, 2019)
